From US20130203706A1, “COMPOUNDS AND METHODS FOR THE TREATMENT OR PREVENTION OF FLAVIVIRUS INFECTIONS” (Vertex Pharmaceuticals Incorporated, priority 2011, published 2013)

assay: PK parameters of prodrugs after oral gavage to rats (plasma levels of prodrug and active metabolite by LC/MS/MS); assay type: in vivo; conditions: orally by gavage, 3 mg/kg, 0.5% MC/0.5% Tween 80/99% water, plasma up to 24 hrs post dose, FIGS. 3-5
Protocol: The prodrug whose PK parameters are to be determined can be formulated as a solution in 0.5% MC/0.5% Tween 80/99% water and administered orally by gavage to rats at a dose of 3 mg/kg. Rats are weighed the day before the study. Rat plasma is sampled predose and at 15, 30 min, 1, 2, 3, 4, 6, 8, 12 and 24 hrs post dose using Instech automatic blood sampling equipment. Blood is collected in tubes containing K2-EDTA and 110 uL plasma are extracted for analysis. Rats are fed ad lib and standard IACUC and SOP protocols are followed. Plasma samples and dose samples are analyzed using LC/MS/MS for both the prodrug compound and the active metabolite. PK parameters for both analytes for each subject are calculated using the measured dose of prodrug. The PK parameters of a prodrug of the invention (compound 10) was measured as described in the preceding paragraph, and are depicted in FIG. 3.

Row | Compound | in vivo conversion of prodrug into active metabolite
1 | CC(C)[C@H](N)C(=O)O[C@H]1CC[C@H](N(c2cc(C#CC(C)(C)C)sc2C(=O)O)C(=O)[C@H]2CC[C@H](C)CC2)CC1 [Compound 1] | in vivo converted into their active metabolites
2 | C[C@@H](N)C(=O)O[C@H]1CC[C@H](N(c2cc(C#CC(C)(C)C)sc2C(=O)O)C(=O)[C@H]2CC[C@H](C)CC2)CC1 [Compound 10] | in vivo converted into the —OH active metabolite
3 | CC(C)C#Cc1cc(N(C(=O)[C@H]2CC[C@H](C)CC2)[C@H]2CC[C@H](OC(=O)[C@H](C)N)CC2)c(C(=O)O)s1 [Compound 11] | in vivo converted into their active metabolites
